The subject of data set [1] is MOLM-13. Nature of the data set: Antiproliferative activity against human MOLM-13 cells assessed as cell viability at 0.1 uM incubated for 3 days by CCK8 assay relative to control. To be noted: MOLM-13, 72 h, time 3 day, read-out: Activity. It counts as functional. On the technique in general: Tetrazolium dyes change colour on reduction, which living cells bring about.

The subject of data set [2] is MOLM-13. In words: Antiproliferative activity against human MOLM-13 cells incubated for 3 days by CCK8 assay. The format is functional, cell-based. To be noted: for pIC50: MOLM-13, 72 h.
For data set [3], the target named is T1, Protein cereblon/Bromodomain-containing protein 4 (Homo sapiens, UniProt O60885+Q96SW2). Nature of the data set: PROTAC activity at CRBN/BRD4 in human MOLM-13 cells assessed as BRD4 degradation at 1 uM incubated for 24 hrs by Western blot analysis. It counts as cell-based. (Immunoblotting shows a protein as a band on a membrane.)
A short description of data set [4]: Toxicity in IL2Rg-null NSG mouse xenografted with human MOLM-13 cells expressing GFP-Fluc assessed as animal death measured after 48 hrs. (In general: A xenograft is tissue or cells of one species grown in another, often human tumour cells in immunodeficient mice.)
The nature of data set [5]: Toxicity in IL2Rg-null NSG mouse xenografted with human MOLM-13 cells expressing GFP-Fluc assessed as hemolysis measured after 48 hrs.
Data set [6] deals with Daudi. Nature of the data set: Antiproliferative activity against human Daudi cells incubated for 3 days by CCK8 assay. The format is functional, cell-based. To be noted: 72 h.
The subject of data set [7] is SU-DHL-1. Nature of the data set: Antiproliferative activity against human SU-DHL-1 cells incubated for 3 days by CCK8 assay. It counts as functional, cell-based. To be noted: SU-DHL-1, 72 h.
Data set [8] addresses Protein cereblon/Eukaryotic peptide chain release factor GTP-binding subunit ERF3A (Homo sapiens, UniProt Q96SW2+P15170). Nature of the data set: PROTAC activity at CRBN/GSPT1 in human MOLM-13 cells assessed as GSPT1 degradation at 100 nM incubated for 6 hrs by Western blot analysis. It counts as cell-based.
In data set [9] the target is T1, Protein cereblon/Bromodomain-containing protein 4. Nature of the data set: PROTAC activity at CRBN/BRD4 in human MOLM-13 cells assessed as BRD4 degradation at 100 nM incubated for 6 hrs by Western blot analysis. The format is cell-based.
Data set [10] deals with KARPAS-299. Nature of the data set: Antiproliferative activity against human KARPAS-299 cells incubated for 3 days by CCK8 assay. The format is functional, cell-based.
The test system of data set [11] is THP-1. In words: Antiproliferative activity against human THP-1 cells incubated for 3 days by CCK8 assay. It counts as functional, cell-based. To be noted: for pIC50: THP-1, 72 h.
The subject of data set [12] is HL-60. In words: Antiproliferative activity against human HL-60 cells incubated for 3 days by CCK8 assay. It counts as functional, cell-based. To be noted: for pIC50: HL-60, 72 h.
For data set [13], the system named is Raji. Nature of the data set: Antiproliferative activity against human Raji cells incubated for 3 days by CCK8 assay. The format is functional, cell-based. To be noted: 72 h.
The subject of data set [14] is OCI-AML-3. Nature of the data set: Antiproliferative activity against human OCI-AML-3 cells incubated for 3 days by CCK8 assay. It counts as functional, cell-based.
For data set [15], the system named is NB-4. Nature of the data set: Antiproliferative activity against human NB4 cells incubated for 3 days by CCK8 assay. The format is functional, cell-based. To be noted: for pIC50: NB-4, 72 h.
In data set [16] the target is T2, Protein cereblon/Eukaryotic peptide chain release factor GTP-binding subunit ERF3A (Mus musculus) (UniProt Q8C7D2+Q8R050). In words: PROTAC activity at CRBN/GSPT1 in mouse A9 cells assessed as fold increase in translational readthrough activity at 0.8 to 20 uM incubated for 48 hrs by Western blot analysis relative to control. It counts as cell-based. To be noted: dose 0.8-20 µM.

In data set [17] the target is T2, Protein cereblon/Eukaryotic peptide chain release factor GTP-binding subunit ERF3A (Mus musculus). Nature of the data set: PROTAC activity at CRBN/GSPT1 in mouse A9 cells harboring pCDH-BSD-M6/pIRES-GFluc assessed as increase in translational readthrough activity at 0.8 to 20 uM incubated for 48 hrs by Western blot analysis. It counts as cell-based. To be noted: dose 0.8-20 µM.

Data set [18] concerns A9. Nature of the data set: Effect on eRF1 expression in mouse A9 cells harboring pCDH-BSD-M6/pIRES-GFluc at 0.8 to 20 uM incubated for 48 hrs by Western blot analysis. To be noted: dose 0.8-20 µM. It counts as functional, cell-based.
In data set [19] the target is T2, Protein cereblon/Eukaryotic peptide chain release factor GTP-binding subunit ERF3A (Mus musculus). Nature of the data set: PROTAC activity at CRBN/GSPT1 in mouse A9 cells harboring pCDH-BSD-M6/pIRES-GFluc assessed as GSPT1 degradation at 0.8 to 20 uM incubated for 48 hrs by Western blot analysis. The format is cell-based. To be noted: dose 0.8-20 µM.

The source of these data is ChEMBL document CHEMBL6109072, “Discovery of highly potent dual GSPT1/BRD4 degraders with anti-AML activity” (Eur J Med Chem, 2025).

pIC50: −log10 of the molar value. Activity calls are given as the source filed them. The calls are words filed in the database; no cut-off is given here.

As a reminder, the pIC50 is −log10 of the IC50, conventionally taken in molar units.

T2 sequence (Q8C7D2 whole entry, looked up): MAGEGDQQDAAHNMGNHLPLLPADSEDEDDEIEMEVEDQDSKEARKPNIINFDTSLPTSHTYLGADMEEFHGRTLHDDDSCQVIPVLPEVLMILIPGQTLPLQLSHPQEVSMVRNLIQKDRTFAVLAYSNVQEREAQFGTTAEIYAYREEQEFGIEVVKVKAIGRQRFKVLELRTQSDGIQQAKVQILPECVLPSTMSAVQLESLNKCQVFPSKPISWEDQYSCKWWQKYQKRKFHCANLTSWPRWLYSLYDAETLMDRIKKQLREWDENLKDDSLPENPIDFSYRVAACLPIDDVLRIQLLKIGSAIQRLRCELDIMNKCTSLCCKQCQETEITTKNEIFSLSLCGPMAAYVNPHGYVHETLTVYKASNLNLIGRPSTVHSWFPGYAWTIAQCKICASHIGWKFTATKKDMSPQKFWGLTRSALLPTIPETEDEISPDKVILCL
T2 sequence (Q8R050 whole entry, looked up): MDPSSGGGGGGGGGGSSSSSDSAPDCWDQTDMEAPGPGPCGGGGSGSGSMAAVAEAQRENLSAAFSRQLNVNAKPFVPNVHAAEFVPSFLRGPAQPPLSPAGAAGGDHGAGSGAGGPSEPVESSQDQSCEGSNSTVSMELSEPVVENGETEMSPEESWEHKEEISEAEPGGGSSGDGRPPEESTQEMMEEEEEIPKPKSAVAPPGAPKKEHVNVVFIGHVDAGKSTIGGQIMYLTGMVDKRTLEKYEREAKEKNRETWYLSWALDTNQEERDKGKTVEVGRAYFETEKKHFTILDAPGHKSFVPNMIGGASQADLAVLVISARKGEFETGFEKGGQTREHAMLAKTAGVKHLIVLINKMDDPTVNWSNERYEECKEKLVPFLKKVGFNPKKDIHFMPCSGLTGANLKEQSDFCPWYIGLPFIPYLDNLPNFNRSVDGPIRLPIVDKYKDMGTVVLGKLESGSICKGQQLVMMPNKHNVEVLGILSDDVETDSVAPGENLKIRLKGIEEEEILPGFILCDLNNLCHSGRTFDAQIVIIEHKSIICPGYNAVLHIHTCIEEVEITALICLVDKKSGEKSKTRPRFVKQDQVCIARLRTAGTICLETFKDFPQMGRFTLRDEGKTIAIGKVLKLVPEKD
Sequence of Protein cereblon/Eukaryotic peptide chain release factor GTP-binding subunit ERF3A (P15170 whole entry, looked up): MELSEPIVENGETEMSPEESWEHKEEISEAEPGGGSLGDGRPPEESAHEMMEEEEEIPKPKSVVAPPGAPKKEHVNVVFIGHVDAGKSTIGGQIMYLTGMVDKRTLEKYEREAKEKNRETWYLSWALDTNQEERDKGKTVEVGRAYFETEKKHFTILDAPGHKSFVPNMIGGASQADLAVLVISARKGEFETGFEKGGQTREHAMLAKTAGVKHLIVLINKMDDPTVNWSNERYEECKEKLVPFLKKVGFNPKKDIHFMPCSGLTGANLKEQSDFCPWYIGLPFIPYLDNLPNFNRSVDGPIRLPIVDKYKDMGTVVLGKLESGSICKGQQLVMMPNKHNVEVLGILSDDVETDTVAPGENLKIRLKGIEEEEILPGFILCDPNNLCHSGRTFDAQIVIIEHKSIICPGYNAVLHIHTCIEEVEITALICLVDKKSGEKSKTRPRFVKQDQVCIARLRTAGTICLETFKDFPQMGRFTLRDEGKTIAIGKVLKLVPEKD
Sequence of Protein cereblon/Eukaryotic peptide chain release factor GTP-binding subunit ERF3A (Q96SW2 whole entry, looked up): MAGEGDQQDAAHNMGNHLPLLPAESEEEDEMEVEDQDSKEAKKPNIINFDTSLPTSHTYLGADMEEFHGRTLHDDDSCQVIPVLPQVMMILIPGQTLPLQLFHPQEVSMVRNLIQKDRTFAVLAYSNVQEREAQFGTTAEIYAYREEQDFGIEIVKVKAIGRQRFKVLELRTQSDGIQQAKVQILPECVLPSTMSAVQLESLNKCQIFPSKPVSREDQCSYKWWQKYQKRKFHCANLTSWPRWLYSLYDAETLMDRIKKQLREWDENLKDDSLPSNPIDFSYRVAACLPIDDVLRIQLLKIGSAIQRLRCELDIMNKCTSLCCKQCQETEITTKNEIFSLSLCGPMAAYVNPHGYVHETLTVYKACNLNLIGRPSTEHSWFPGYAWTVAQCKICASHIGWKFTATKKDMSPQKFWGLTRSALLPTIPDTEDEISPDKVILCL
T1 sequence (Q96SW2 whole entry, looked up, other chains not shown): as the sequence (Q96SW2 whole entry, looked up) above

Consider `Cc1sc2c(c1C)C(c1ccc(Cl)cc1)=N[C@@H](CC(=O)N1CCN(C3CCN(c4cccc5c4C(=O)N(C4CCC(=O)NC4=O)C5=O)CC3)CC1)c1nnc(C)n1-2` (some centres undefined), for which, in data set [1], the viability at 0.1 µM is 19.3%. The molecule also showed a negative-log IC50 (pIC50) in data set [2] of 7.43. The outcome in data set [3] was Active.
For `Cc1sc2c(c1C)C(c1ccc(Cl)cc1)=N[C@@H](CC(=O)N1CCN(C3CN(c4ccc5c(c4)C(=O)N(C4CCC(=O)NC4=O)C5=O)C3)CC1)c1nnc(C)n1-2` (some centres undefined) the same measures were 7.24%, 7.73 and “Active”.
As to `Cc1sc2c(c1C)C(c1ccc(Cl)cc1)=N[C@@H](CC(=O)N1CC(N3CCN(c4cccc5c4C(=O)N(C4CCC(=O)NC4=O)C5=O)CC3)C1)c1nnc(C)n1-2` (some centres undefined), the viability at 0.1 µM in data set [1] was 124%.
In the case of `Cc1sc2c(c1C)C(c1ccc(Cl)cc1)=N[C@@H](CC(=O)N1CCN(C3CCN(c4ccc5c(c4)C(=O)N(C4CCC(=O)NC4=O)C5=O)CC3)CC1)c1nnc(C)n1-2` (some centres undefined), the Activity result in data set [4] and in data set [5] was “Toxic” throughout. Further, the negative logarithm of the IC50 (pIC50) in data set [6] was 7.99; in [7], 7.95; in data set [2], 8.22; in data set [10] (Homo sapiens, KARPAS-299, 72 h), 7.69; in data set [11], 7.78; in [12] it was 8.13. Further, the negative-log IC50 (pIC50) is 7.86 in data set [13]; 7.76 in data set [14] (Homo sapiens, OCI-AML-3, 72 h); 8.37 in data set [15]. For the same molecule, the viability at 0.1 µM in data set [1] is 6.8%. The result in data set [8], in data set [9] and in [3] was Active.
Take `Cc1sc2c(c1C)C(c1ccc(Cl)cc1)=N[C@@H](CC(=O)N1CCN(CC3CN(c4ccc5c(c4)C(=O)N(C4CCC(=O)NC4=O)C5=O)C3)CC1)c1nnc(C)n1-2` (some centres undefined): the pIC50 in data set [6] is 6.75; in [7] it was 7.46; in data set [2] it was 7.87; in [10] (Homo sapiens, KARPAS-299, 72 h) it was 6.48; in data set [11], 7.50; in [12] it was 7.72. In addition, the negative logarithm of the IC50 (pIC50) was 7.09 in data set [13]; 7.56 in data set [14] (Homo sapiens, OCI-AML-3, 72 h); 8.22 in [15]. For the same molecule, the viability at 0.1 µM in data set [1] turned out to be 8.1%. The result in data set [8], in data set [9] and in [3] was Active.
Regarding `Cc1sc2c(c1C)C(c1ccc(Cl)cc1)=N[C@@H](CC(=O)N1CCC(CN3CCN(c4ccc5c(c4)C(=O)N(C4CCC(=O)NC4=O)C5=O)CC3)CC1)c1nnc(C)n1-2` (some centres undefined), the viability at 0.1 µM in [1] worked out at 15.5%. Moreover, the pIC50 in [2] is 7.21.
Regarding `Cc1sc2c(c1C)C(c1ccc(Cl)cc1)=N[C@@H](CC(=O)N1CCC(N3CCN(c4ccc5c(c4)C(=O)N(C4CCC(=O)NC4=O)C5=O)CC3)CC1)c1nnc(C)n1-2` (some centres undefined), the viability at 0.1 µM in data set [1] was 7.55%. The molecule further had a negative-log IC50 (pIC50) in data set [2] of 7.59.
Turning to `Cc1sc2c(c1C)C(c1ccc(Cl)cc1)=N[C@@H](CC(=O)N1CCC(CN3CCN(c4cccc5c4C(=O)N(C4CCC(=O)NC4=O)C5=O)CC3)CC1)c1nnc(C)n1-2` (some centres undefined), in data set [1], the viability at 0.1 µM was 79.6%.
Regarding `Cc1sc2c(c1C)C(c1ccc(Cl)cc1)=N[C@@H](CC(=O)N1CC(CN3CCN(c4ccc5c(c4)C(=O)N(C4CCC(=O)NC4=O)C5=O)CC3)C1)c1nnc(C)n1-2` (some centres undefined), the viability at 0.1 µM in data set [1] is 7.45%. In addition, the negative logarithm of the IC50 (pIC50) in [2] was 7.47. The result in data set [3] was Active.
As to `Cc1sc2c(c1C)C(c1ccc(Cl)cc1)=N[C@@H](CC(=O)NCCNc1cccc3c1C(=O)N(C1CCC(=O)NC1=O)C3=O)c1nnc(C)n1-2` (some centres undefined), the negative logarithm of the IC50 (pIC50) is 6.58 in data set [6]; 6.71 in data set [7]; 6.82 in [2]; 6.09 in data set [10] (Homo sapiens, KARPAS-299, 72 h); 6.04 in data set [10] (karpas-299); 6.26 in [11]. Also, the pIC50 in [12] is 6.46; in [13] it was 6.74; in data set [14] (Homo sapiens, OCI-AML-3, 72 h), 6.49; in data set [14] (oci-aml-3) it was 6.42; in data set [15], 7.03. Further, the fold change (FC) in data set [16] was 7. Moreover, the result in data set [2] (time 3.0 day), in data set [17], in data set [11] (time 3.0 day), in data set [12] (time 3.0 day), in data set [3] and in data set [19] was Active. Moreover, the outcome in data set [14] (time 3.0 day) and in data set [15] (time 3.0 day) was Active. In data set [18], the Activity result was “No effect”.
Take `Cc1sc2c(c1C)C(c1ccc(Cl)cc1)=N[C@@H](CC(=O)N1CCC(N3CCN(c4cccc5c4C(=O)N(C4CCC(=O)NC4=O)C5=O)CC3)CC1)c1nnc(C)n1-2` (some centres undefined): the viability at 0.1 µM in data set [1] was found to be 72%.
On the same count and under the same terms, the figure for `Cc1sc2c(c1C)C(c1ccc(Cl)cc1)=N[C@@H](CC(=O)N1CC(CN3CCN(c4cccc5c4C(=O)N(C4CCC(=O)NC4=O)C5=O)CC3)C1)c1nnc(C)n1-2` (some centres undefined) is 110%.
Consider `O=C1CCC(N2Cc3cc(CNC(=O)C(F)(F)c4ccc(Cl)cc4)ccc3C2=O)C(=O)N1` (centres undefined), for which the pIC50 in [2] was 6.74; in data set [10] (Homo sapiens, KARPAS-299, 72 h) it was under 5.00; in data set [13] it was under 5.00; in data set [14] (Homo sapiens, OCI-AML-3, 72 h) it was under 5.00. The outcome in data set [3] was Active.
Regarding `Cc1sc2c(c1C)C(c1ccc(Cl)cc1)=N[C@@H](CC(=O)N1CCN(C3CN(c4cccc5c4C(=O)N(C4CCC(=O)NC4=O)C5=O)C3)CC1)c1nnc(C)n1-2` (some centres undefined), the viability at 0.1 µM in [1] was determined as 66.2%.
`Cc1sc2c(c1C)C(c1ccc(Cl)cc1)=N[C@@H](CC(=O)N1CC(N3CCN(c4ccc5c(c4)C(=O)N(C4CCC(=O)NC4=O)C5=O)CC3)C1)c1nnc(C)n1-2` (some centres undefined): the viability at 0.1 µM in data set [1] is 9.49%. The pIC50 in data set [2] is 7.13.
With `Cc1sc2c(c1C)C(c1ccc(Cl)cc1)=N[C@@H](CC(=O)N1CCN(CC3CN(c4cccc5c4C(=O)N(C4CCC(=O)NC4=O)C5=O)C3)CC1)c1nnc(C)n1-2` (some centres undefined), the negative logarithm of the IC50 (pIC50) in data set [6] is 6.59; in data set [7], 6.93; in data set [2], 7.83; in [10] (Homo sapiens, KARPAS-299, 72 h), 5.47; in data set [11], 6.99; in data set [12], 7.20. Also, the negative logarithm of the IC50 (pIC50) in data set [13] was 6.22; in [14] (Homo sapiens, OCI-AML-3, 72 h), 7.12; in data set [15], 7.72. In addition, the viability at 0.1 µM in data set [1] is 11.7%. In addition, the result in data set [8], in data set [9] and in data set [3] was Active.
Regarding `Cc1sc2c(c1C)C(c1ccc(Cl)cc1)=N[C@@H](CC(=O)NCCCCNc1cccc3c1C(=O)N(C1CCC(=O)NC1=O)C3=O)c1nnc(C)n1-2` (some centres undefined), the negative logarithm of the IC50 (pIC50) in [2] was 6.37; in [10] (Homo sapiens, KARPAS-299, 72 h), 5.11; in data set [13], 6.03; in data set [14] (Homo sapiens, OCI-AML-3, 72 h), 5.92.
For `Cc1sc2c(c1C)C(c1ccc(Cl)cc1)=N[C@@H](CC(=O)N1CCN(CC3CCN(c4cccc5c4C(=O)N(C4CCC(=O)NC4=O)C5=O)CC3)CC1)c1nnc(C)n1-2` (some centres undefined), in [1], the viability at 0.1 µM turned out to be 18%. Further, the pIC50 in [2] was 7.33. The result in [3] was Active.
